The values below come from ChEMBL document CHEMBL3232809, “Synthesis, antibiotic activity and structure-activity relationship study of some 3-enaminetetramic acids” (2014).

SMILES strings stand for the structures. ≈ marks a conversion by molar mass, not a printed value.

What all share (format): functional
Assay [1] concerns Pseudomonas aeruginosa. The experiment in a line: Antimicrobial activity against Pseudomonas aeruginosa ATCC 27853.
In assay [2] the test system is Haemophilus influenzae. The experiment in a line: Antimicrobial activity against LS2 Efflux knock-out Haemophilus influenzae.
The subject of assay [3] is Streptococcus pneumoniae. Briefly: Antimicrobial activity against erythromycin-susceptible Streptococcus pneumoniae ATCC 49619.
For assay [4], the system named is Staphylococcus aureus. The experiment in a line: Antimicrobial activity against methicillin-sensitive Staphylococcus aureus ATCC 13709.
In assay [5] the test system is Staphylococcus aureus. Briefly: Antimicrobial activity against methicillin-resistant Staphylococcus aureus.
The test system of assay [6] is Haemophilus influenzae. Briefly: Antimicrobial activity against Haemophilus influenzae ATCC 31517 MMSA.
Assay [7] has as its system Enterococcus faecalis. The experiment in a line: Antimicrobial activity against vancomycin-susceptible Enterococcus faecalis ATCC 29212.
Assay [8] concerns Enterococcus faecium. The experiment in a line: Antimicrobial activity against vancomycin-resistant Enterococcus faecium.
For assay [9], the system named is Escherichia coli. Briefly: Antimicrobial activity against Escherichia coli 49.
Assay [10] relates to Escherichia coli. Briefly: Antimicrobial activity against Escherichia coli 50.
For assay [11], the system named is Staphylococcus aureus. Briefly: Antimicrobial activity against Staphylococcus aureus Oxford.
The test system of assay [12] is Streptococcus pneumoniae. Briefly: Antimicrobial activity against penicillin- and erythromycin-resistant Streptococcus pneumoniae in presence of 2.5% horse blood.
In assay [13] the test system is Escherichia coli. Briefly: Antimicrobial activity against Escherichia coli ATCC 25922.
For assay [14], the system named is Streptococcus pneumoniae. The experiment in a line: Antimicrobial activity against penicillin- and erythromycin-resistant Streptococcus pneumoniae.
Assay [15] deals with Staphylococcus aureus. Briefly: Antimicrobial activity against vancomycin-susceptible Staphylococcus aureus ATCC 25923.

Consider `C/C(NCCOc1ccccc1)=C1/C(=O)[C@@H]2CCCC(=O)N2C1=O`, for which the MIC in [1], in assay [2], in assay [3], in [4], in [5] and in assay [6] was over 32 µg/mL in each case. Also, the MIC in assay [7], in [8], in assay [9], in [10], in assay [11] and in [12] was over 32 µg/mL in each case. The MIC in assay [13], in assay [14] and in assay [15] was over 32 µg/mL throughout.

`CCOC(=O)[C@]12CO[C@H](C(C)(C)C)N1C(=O)/C(=C(/CC13CC4CC(CC(C4)C1)C3)NC(C)CCCN(CC)CC)C2=O` (stereo not given in full): the MIC in assay [1] was over 32 µg/mL; in assay [2], 16 µg/mL (≈ 27.3 µM); in assay [3], 32 µg/mL (≈ 54.6 µM); in [4] it was 32 µg/mL (≈ 54.6 µM); in [5], 64 µg/mL (≈ 109 µM); in [6] it was over 64 µg/mL. For the same compound, the MIC in assay [7] is 32 µg/mL (≈ 54.6 µM); in [8], 32 µg/mL (≈ 54.6 µM); in assay [9], over 32 µg/mL; in [10], over 32 µg/mL; in [11], 32 µg/mL (≈ 54.6 µM); in assay [12] it was 32 µg/mL. Also, the figures for the MIC in assay [13], in assay [14] and in assay [15] were over 32 µg/mL, 16 µg/mL (≈ 27.3 µM) and 64 µg/mL (≈ 109 µM), respectively.

Turning to `CCCCCCN/C(=C1/C(=O)CNC1=O)c1ccccc1`, the MIC in assay [1], in assay [2], in assay [3], in [4], in assay [5] and in assay [6] was over 32 µg/mL each time. For the same compound, the MIC in [7], in assay [8], in assay [9], in assay [10], in assay [11] and in assay [12] was over 32 µg/mL throughout. For the same compound, the MIC in [13], in assay [14] and in assay [15] was over 32 µg/mL throughout.

Regarding `CCN(CC)CCCC(C)N/C(CCCOc1ccccc1)=C1/C(=O)C(CC(C)C)N(C(=O)c2ccccc2)C1=O` (stereo not given), the MIC in assay [1], in [2], in assay [3], in assay [4], in assay [5] and in assay [6] was over 32 µg/mL throughout. Moreover, the MIC in assay [7], in assay [8], in [9], in [10], in [11] and in assay [12] was over 32 µg/mL each time. The MIC in assay [13], in [14] and in [15] was over 32 µg/mL each time.

As for `CCCCOCCCN/C(C)=C1/C(=O)N2[C@@H](C(C)(C)C)OC[C@]2(C(=O)OCC)C1=O`, the MIC in assay [1], in [2], in assay [3], in assay [4], in [5] and in [6] was over 32 µg/mL each time. For the same compound, the MIC in assay [7], in assay [8], in assay [9], in assay [10], in [11] and in assay [12] was over 32 µg/mL throughout. The MIC in assay [13], in assay [14] and in assay [15] was over 32 µg/mL in each case.

For `CCOC(=O)[C@]12CO[C@H](C(C)(C)C)N1C(=O)/C(=C(\C)Nc1ncc(Cl)cn1)C2=O`, the MIC in assay [1], in assay [2], in assay [3], in assay [4], in [5] and in [6] was over 32 µg/mL in each case. Also, the MIC in assay [7], in assay [8], in [9], in [10], in assay [11] and in assay [12] was over 32 µg/mL throughout. Besides, the MIC in assay [13], in assay [14] and in [15] was over 32 µg/mL throughout.

For the compound `CCOC(=O)[C@]12CO[C@H](C(C)(C)C)N1C(=O)/C(=C(\C)NCCOc1ccccc1)C2=O`, the MIC in assay [1] was over 32 µg/mL; in assay [2] it was 32 µg/mL (≈ 74.3 µM); in assay [3], 2 µg/mL (≈ 4.65 µM); in assay [4] it was 64 µg/mL (≈ 149 µM); in assay [5], 64 µg/mL (≈ 149 µM); in [6], over 64 µg/mL. For the same compound, the MIC is 64 µg/mL (≈ 149 µM) in assay [7]; 8 µg/mL (≈ 18.6 µM) in [8]; over 32 µg/mL in assay [9]; over 32 µg/mL in [10]; over 64 µg/mL in [11]; 2 µg/mL in assay [12]. Besides, the MIC was over 32 µg/mL in [13], 1 µg/mL (≈ 2.32 µM) in assay [14] and 64 µg/mL (≈ 149 µM) in assay [15].

On to `CCCC(=O)N1CC(=O)/C(=C(\CC23CC4CC(CC(C4)C2)C3)NCCCN2CCOCC2)C1=O`, for which the MIC in assay [1] was over 32 µg/mL; in assay [2], 16 µg/mL (≈ 33.9 µM); in assay [3], 64 µg/mL (≈ 136 µM); in [4], over 64 µg/mL; in assay [5] it was over 64 µg/mL; in [6], over 64 µg/mL. For the same compound, the MIC in assay [7] was over 64 µg/mL; in assay [8], over 64 µg/mL; in assay [9], over 32 µg/mL; in assay [10], over 32 µg/mL; in assay [11] it was over 64 µg/mL; in assay [12], 64 µg/mL. For the same compound, the MIC in [13] was over 32 µg/mL; in assay [14] it was 64 µg/mL (≈ 136 µM); in assay [15] it was over 64 µg/mL.

Turning to `CCOC(=O)[C@]12CO[C@H](C(C)(C)C)N1C(=O)/C(=C(/CC13CC4CC(CC(C4)C1)C3)NCC(C)(C)CN(C)C)C2=O`, the MIC in [1], in [2], in assay [3], in assay [4], in assay [5] and in assay [6] was over 32 µg/mL each time. Moreover, the MIC in [7], in assay [8], in [9], in [10], in [11] and in assay [12] was over 32 µg/mL throughout. Further, the MIC in [13], in assay [14] and in assay [15] was over 32 µg/mL throughout.

On to `CCCCCCCCCCCCC/C(NCCCNC(=O)COCC(=O)O)=C1\C(=O)CN(CCCCCC)C1=O`, for which the MIC in assay [1] is over 32 µg/mL; in assay [2] it was over 64 µg/mL; in [3], 8 µg/mL (≈ 14.1 µM); in [4], over 64 µg/mL; in assay [5], over 64 µg/mL; in assay [6], over 64 µg/mL. For the same compound, the MIC in assay [7] is 16 µg/mL (≈ 28.3 µM); in [8] it was 16 µg/mL (≈ 28.3 µM); in assay [9], over 32 µg/mL; in [10], over 32 µg/mL; in assay [11], over 64 µg/mL; in [12], 64 µg/mL. For the same compound, the MIC was over 32 µg/mL in [13], 16 µg/mL (≈ 28.3 µM) in assay [14] and over 64 µg/mL in assay [15].

Take `CC(C)(C)[C@H]1OC[C@@H]2C(=O)/C(=C(/NCCCCN)c3ccccc3)C(=O)N21`: the MIC in assay [1], in assay [2], in assay [3], in assay [4], in assay [5] and in assay [6] was over 32 µg/mL each time. Besides, the MIC in [7], in assay [8], in assay [9], in assay [10], in [11] and in assay [12] was over 32 µg/mL throughout. Also, the MIC in [13], in assay [14] and in assay [15] was over 32 µg/mL each time.

As to `COC(=O)[C@@]12CO[C@@H](C(C)(C)C)N1C(=O)/C(=C(\C)NC13CC4CC(CC(C4)C1)C3)C2=O`, the MIC is over 32 µg/mL in assay [1]; 16 µg/mL (≈ 37.2 µM) in assay [2]; over 64 µg/mL in assay [3]; over 64 µg/mL in assay [4]; over 64 µg/mL in assay [5]; over 64 µg/mL in assay [6]. Moreover, the MIC is over 64 µg/mL in assay [7]; over 64 µg/mL in [8]; over 32 µg/mL in assay [9]; over 32 µg/mL in assay [10]; over 64 µg/mL in assay [11]; over 64 µg/mL in [12]. Also, the MIC in assay [13] is over 32 µg/mL; in [14] it was over 64 µg/mL; in [15] it was over 64 µg/mL.

For `CCCCCCCCCC/C(NCCCOC(C)C)=C1\C(=O)C(CCSC)N(C(C)=O)C1=O` (stereo not given), the MIC in assay [1], in [2], in [3], in [4], in [5] and in [6] was over 32 µg/mL each time. Moreover, the MIC in [7], in [8], in assay [9], in assay [10], in [11] and in assay [12] was over 32 µg/mL each time. Further, the MIC in assay [13], in assay [14] and in [15] was over 32 µg/mL throughout.

Turning to `CCCCCCCCCCC/C(NCCCOC(C)C)=C1\C(=O)[C@@H]2CCCC(=O)N2C1=O`, the MIC in assay [1] is over 32 µg/mL; in assay [2], 4 µg/mL (≈ 8.92 µM); in [3] it was over 64 µg/mL; in assay [4] it was over 64 µg/mL; in assay [5] it was over 64 µg/mL; in [6] it was over 64 µg/mL. The MIC in assay [7] was over 64 µg/mL; in assay [8], over 64 µg/mL; in [9], over 32 µg/mL; in assay [10], over 32 µg/mL; in assay [11], over 64 µg/mL; in [12], over 64 µg/mL. For the same compound, the MIC was over 32 µg/mL in assay [13], 16 µg/mL (≈ 35.7 µM) in assay [14] and over 64 µg/mL in assay [15].
